Results published in patent publication US20160082161A1, “DRUG-ELUTING MEDICAL DEVICES” (Ramot at Tel-Aviv University Ltd., priority 2008, published 2016).

Assay: In vitro drug release from drug-eluting composite fibers in PBS
Format: physicochemical
Conditions: PBS pH 7.4, 37° C.; PDLGA porous coat
Method: The composite drug-eluting fibers were immersed in phosphate buffered saline (PBS) at 37° C. and pH 7.4 for 35 days (FTS) or 37 weeks (paclitaxel), in triplicates, in order to determine the release kinetics from the drug-loaded composite structures. Each test vial contained 2 fibers; each fiber was 5 cm long. The release studies were conducted in closed glass tubes containing 3 ml PBS medium, using a horizontal bath shaker operated at a constant rate of 130 rpm. The medium was removed completely at certain sampling time points, extracted from the aqueous medium as described herein and measured using HPLC. Fresh medium was then introduced. At the end of the experiment the fibers were immersed in methylene chloride and the residual amount of drug was measured.
The drug content of the medium samples was determined using Jasco High Performance Liquid Chromatography (HPLC) equipped with a UV 2075 plus detector and a quaternary gradient pump (PU 2089 plus). […] The paclitaxel content of the medium samples was determined using a reverse phase column (Zorbax ODS 5 μm, inner diameter 4.6 mm, length 150 mm), and kept at 25° C. […]
On the final day of the in vitro trial, residual FTS from composite drug-eluting fibers was measured as follows: the fibers were placed in 1 ml methylene chloride for 10 minutes and the coating shell was dissolved. […]

SMILES | Drug release from porous coat structures (time scale)
CC(=O)O[C@H]1C(=O)[C@@]2(C)[C@H]([C@H](OC(=O)c3ccccc3)[C@]3(O)C[C@H](OC(=O)[C@H](O)[C@@H](NC(=O)c4ccccc4)c4ccccc4)C(C)=C1C3(C)C)[C@]1(OC(C)=O)CO[C@@H]1C[C@@H]2O [paclitaxel, Paclitaxel] | slower paclitaxel release within several months
CC(C)=CCCC(C)=CCCC(C)=CCSc1ccccc1C(=O)O (stereo in doubt) [FTS, 2-((2E,6E)-3,7,11-trimethyldodeca-2,6,10-trienylthio)benzoic acid] | relatively fast FTS release within several weeks
